This note sets out measurements from PMC4972573 (Nature structural & molecular biology, 2013).

The test concerns the target GluK2 Y521C L783C (Rattus norvegicus, UniProt P42260, Y521C/L783C). The test can be described thus: outside-out patch single-channel and macroscopic currents. It counts as cell-based.

Sequence of GluK2 Y521C L783C (P42260 32-908 Y521C/L783C): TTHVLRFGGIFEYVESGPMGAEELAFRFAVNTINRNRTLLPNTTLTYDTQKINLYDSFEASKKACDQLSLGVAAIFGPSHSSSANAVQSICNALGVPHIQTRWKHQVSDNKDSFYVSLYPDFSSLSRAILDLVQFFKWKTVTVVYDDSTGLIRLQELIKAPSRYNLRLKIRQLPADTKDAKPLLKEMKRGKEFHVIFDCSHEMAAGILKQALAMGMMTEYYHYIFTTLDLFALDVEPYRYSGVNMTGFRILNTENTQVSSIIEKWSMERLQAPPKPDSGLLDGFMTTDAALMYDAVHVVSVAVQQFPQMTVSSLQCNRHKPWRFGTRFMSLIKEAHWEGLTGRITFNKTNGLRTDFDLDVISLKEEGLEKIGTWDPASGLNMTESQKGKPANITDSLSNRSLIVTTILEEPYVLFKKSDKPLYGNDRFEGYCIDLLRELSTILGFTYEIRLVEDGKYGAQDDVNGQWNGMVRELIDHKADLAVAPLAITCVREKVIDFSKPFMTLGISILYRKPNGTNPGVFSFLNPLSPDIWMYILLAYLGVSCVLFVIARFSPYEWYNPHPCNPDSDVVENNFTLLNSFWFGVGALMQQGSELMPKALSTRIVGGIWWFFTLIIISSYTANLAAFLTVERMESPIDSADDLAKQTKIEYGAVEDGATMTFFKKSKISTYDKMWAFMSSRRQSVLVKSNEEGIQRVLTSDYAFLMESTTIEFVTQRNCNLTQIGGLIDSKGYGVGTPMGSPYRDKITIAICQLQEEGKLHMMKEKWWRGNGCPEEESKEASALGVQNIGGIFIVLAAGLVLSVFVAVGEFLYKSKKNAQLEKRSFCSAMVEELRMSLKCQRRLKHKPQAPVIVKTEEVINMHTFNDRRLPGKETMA

In the case of `N[C@@H](CCC(=O)O)C(=O)O` [L-Glu], the “outside-out patch single-channel and macroscopic currents” value is “Unitary current events elicited by L-Glu acting on Y521C L783C channels”.
